# Where a SMILES comes first, the peptide text is derived from it. [ ]: non-standard residue; d: D form.
# T1: Solute carrier organic anion transporter family member 1B3 (Homo sapiens, UniProt Q9NPD5)
# T1 sequence (Q9NPD5 whole entry): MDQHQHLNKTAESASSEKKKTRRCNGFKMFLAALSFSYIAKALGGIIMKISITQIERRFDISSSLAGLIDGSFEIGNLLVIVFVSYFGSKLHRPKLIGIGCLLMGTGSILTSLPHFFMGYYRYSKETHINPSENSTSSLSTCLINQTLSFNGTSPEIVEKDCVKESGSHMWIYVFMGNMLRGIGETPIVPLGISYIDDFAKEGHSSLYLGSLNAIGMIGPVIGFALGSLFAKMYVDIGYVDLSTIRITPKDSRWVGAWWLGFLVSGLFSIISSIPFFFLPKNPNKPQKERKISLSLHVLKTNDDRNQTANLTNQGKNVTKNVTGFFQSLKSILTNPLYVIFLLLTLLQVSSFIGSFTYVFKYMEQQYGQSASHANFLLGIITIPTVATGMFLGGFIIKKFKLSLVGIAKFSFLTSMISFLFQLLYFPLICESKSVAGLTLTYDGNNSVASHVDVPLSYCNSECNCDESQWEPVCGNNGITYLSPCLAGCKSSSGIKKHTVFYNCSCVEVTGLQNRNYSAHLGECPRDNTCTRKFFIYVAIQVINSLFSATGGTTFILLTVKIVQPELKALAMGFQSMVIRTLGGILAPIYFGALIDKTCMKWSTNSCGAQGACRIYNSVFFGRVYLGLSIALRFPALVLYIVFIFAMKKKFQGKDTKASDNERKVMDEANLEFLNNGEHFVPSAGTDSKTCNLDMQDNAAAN
# T2: Solute carrier organic anion transporter family member 1B1 (Homo sapiens, UniProt Q9Y6L6)
# T2 sequence (Q9Y6L6 whole entry): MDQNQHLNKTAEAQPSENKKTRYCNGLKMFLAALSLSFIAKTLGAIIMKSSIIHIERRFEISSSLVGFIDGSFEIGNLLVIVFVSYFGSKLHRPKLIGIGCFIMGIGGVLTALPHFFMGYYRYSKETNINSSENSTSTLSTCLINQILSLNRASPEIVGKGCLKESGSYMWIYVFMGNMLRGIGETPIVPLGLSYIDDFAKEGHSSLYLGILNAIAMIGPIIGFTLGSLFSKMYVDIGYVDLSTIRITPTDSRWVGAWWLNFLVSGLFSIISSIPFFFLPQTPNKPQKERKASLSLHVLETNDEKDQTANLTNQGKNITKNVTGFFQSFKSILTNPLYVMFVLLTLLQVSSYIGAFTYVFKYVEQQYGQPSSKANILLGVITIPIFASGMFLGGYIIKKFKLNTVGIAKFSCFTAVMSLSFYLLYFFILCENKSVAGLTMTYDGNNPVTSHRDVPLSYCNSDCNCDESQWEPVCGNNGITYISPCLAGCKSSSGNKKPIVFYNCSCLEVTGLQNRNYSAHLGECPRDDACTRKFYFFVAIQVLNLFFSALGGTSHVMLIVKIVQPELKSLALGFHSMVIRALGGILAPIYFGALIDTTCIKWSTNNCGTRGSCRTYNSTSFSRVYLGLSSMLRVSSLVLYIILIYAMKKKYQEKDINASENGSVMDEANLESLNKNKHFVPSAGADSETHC
# T3: Solute carrier organic anion transporter family member 1A2 (Homo sapiens, UniProt P46721)
# T3 sequence (P46721 whole entry): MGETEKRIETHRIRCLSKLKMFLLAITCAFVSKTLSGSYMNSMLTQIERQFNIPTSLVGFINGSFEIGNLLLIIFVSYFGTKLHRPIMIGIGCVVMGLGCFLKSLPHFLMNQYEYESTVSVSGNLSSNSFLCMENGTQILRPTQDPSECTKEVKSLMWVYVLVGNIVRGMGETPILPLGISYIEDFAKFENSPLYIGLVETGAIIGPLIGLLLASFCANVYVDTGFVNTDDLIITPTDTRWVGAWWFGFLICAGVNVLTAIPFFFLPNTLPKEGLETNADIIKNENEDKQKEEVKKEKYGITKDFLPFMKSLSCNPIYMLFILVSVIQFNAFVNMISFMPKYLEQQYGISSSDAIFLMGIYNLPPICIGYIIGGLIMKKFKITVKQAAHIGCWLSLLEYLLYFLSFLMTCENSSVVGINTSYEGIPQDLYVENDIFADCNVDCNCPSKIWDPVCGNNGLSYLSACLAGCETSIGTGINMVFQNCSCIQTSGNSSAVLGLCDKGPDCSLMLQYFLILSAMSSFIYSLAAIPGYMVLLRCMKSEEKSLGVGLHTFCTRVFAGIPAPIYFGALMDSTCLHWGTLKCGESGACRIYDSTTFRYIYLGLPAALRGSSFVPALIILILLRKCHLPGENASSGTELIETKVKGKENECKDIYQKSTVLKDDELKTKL
# T4: Solute carrier organic anion transporter family member 2B1 (Homo sapiens, UniProt O94956)
# T4 sequence (O94956 whole entry): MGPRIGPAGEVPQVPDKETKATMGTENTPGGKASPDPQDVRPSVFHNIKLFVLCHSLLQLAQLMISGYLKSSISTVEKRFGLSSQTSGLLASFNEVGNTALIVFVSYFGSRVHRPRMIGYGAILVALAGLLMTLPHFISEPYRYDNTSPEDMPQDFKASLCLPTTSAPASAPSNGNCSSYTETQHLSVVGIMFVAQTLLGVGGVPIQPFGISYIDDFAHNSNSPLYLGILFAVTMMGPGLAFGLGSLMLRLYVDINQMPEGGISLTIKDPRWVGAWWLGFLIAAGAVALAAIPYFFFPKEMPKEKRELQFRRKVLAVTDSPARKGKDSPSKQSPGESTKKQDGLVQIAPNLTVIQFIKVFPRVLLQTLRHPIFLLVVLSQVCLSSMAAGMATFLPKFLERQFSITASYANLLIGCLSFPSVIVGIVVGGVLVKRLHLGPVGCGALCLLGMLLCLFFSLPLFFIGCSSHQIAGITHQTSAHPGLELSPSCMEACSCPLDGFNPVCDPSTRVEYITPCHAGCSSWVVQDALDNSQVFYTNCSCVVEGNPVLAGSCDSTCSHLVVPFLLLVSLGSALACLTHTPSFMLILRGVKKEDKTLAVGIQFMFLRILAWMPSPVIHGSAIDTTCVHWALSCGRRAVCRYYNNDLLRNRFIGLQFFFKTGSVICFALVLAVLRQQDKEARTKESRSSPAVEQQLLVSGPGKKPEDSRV
# T5: Solute carrier organic anion transporter family member 1B3 (OATP1B3, SLCO1B3) (Homo sapiens, UniProt Q9NPD5)
# T5 sequence (Q9NPD5 whole entry): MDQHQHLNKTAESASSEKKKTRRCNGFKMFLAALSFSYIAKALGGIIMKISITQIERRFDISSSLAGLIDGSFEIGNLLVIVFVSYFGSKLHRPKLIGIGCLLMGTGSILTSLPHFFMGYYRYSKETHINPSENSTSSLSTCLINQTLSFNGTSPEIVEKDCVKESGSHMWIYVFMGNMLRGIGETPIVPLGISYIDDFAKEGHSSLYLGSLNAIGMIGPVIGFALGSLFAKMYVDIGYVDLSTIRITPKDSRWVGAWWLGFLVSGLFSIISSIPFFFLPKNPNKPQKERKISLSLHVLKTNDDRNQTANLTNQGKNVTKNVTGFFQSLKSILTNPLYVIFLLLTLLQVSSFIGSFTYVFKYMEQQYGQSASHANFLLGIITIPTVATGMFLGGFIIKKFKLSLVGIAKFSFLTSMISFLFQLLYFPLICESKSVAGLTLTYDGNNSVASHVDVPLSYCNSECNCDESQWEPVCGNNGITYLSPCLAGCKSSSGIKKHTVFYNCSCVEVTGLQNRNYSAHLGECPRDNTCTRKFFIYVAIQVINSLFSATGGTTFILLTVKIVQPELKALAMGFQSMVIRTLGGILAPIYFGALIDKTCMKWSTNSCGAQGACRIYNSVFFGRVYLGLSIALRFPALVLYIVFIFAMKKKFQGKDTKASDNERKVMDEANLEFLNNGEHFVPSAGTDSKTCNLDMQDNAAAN
# B1: Solute carrier organic anion transporter family member 2B1 (Homo sapiens) (protein)
# chain: MGPRIGPAGEVPQVPDKETKATMGTENTPGGKASPDPQDVRPSVFHNIKLFVLCHSLLQLAQLMISGYLKSSISTVEKRFGLSSQTSGLLASFNEVGNTALIVFVSYFGSRVHRPRMIGYGAILVALAGLLMTLPHFISEPYRYDNTSPEDMPQDFKASLCLPTTSAPASAPSNGNCSSYTETQHLSVVGIMFVAQTLLGVGGVPIQPFGISYIDDFAHNSNSPLYLGILFAVTMMGPGLAFGLGSLMLRLYVDINQMPEGGISLTIKDPRWVGAWWLGFLIAAGAVALAAIPYFFFPKEMPKEKRELQFRRKVLAVTDSPARKGKDSPSKQSPGESTKKQDGLVQIAPNLTVIQFIKVFPRVLLQTLRHPIFLLVVLSQVCLSSMAAGMATFLPKFLERQFSITASYANLLIGCLSFPSVIVGIVVGGVLVKRLHLGPVGCGALCLLGMLLCLFFSLPLFFIGCSSHQIAGITHQTSAHPGLELSPSCMEACSCPLDGFNPVCDPSTRVEYITPCHAGCSSWVVQDALDNSQVFYTNCSCVVEGNPVLAGSCDSTCSHLVVPFLLLVSLGSALACLTHTPSFMLILRGVKKEDKTLAVGIQFMFLRILAWMPSPVIHGSAIDTTCVHWALSCGRRAVCRYYNNDLLRNRFIGLQFFFKTGSVICFALVLAVLRQQDKEARTKESRSSPAVEQQLLVSGPGKKPEDSRV
# B2: Solute carrier organic anion transporter family member 1B1 (Homo sapiens) (protein)
# chain: MDQNQHLNKTAEAQPSENKKTRYCNGLKMFLAALSLSFIAKTLGAIIMKSSIIHIERRFEISSSLVGFIDGSFEIGNLLVIVFVSYFGSKLHRPKLIGIGCFIMGIGGVLTALPHFFMGYYRYSKETNINSSENSTSTLSTCLINQILSLNRASPEIVGKGCLKESGSYMWIYVFMGNMLRGIGETPIVPLGLSYIDDFAKEGHSSLYLGILNAIAMIGPIIGFTLGSLFSKMYVDIGYVDLSTIRITPTDSRWVGAWWLNFLVSGLFSIISSIPFFFLPQTPNKPQKERKASLSLHVLETNDEKDQTANLTNQGKNITKNVTGFFQSFKSILTNPLYVMFVLLTLLQVSSYIGAFTYVFKYVEQQYGQPSSKANILLGVITIPIFASGMFLGGYIIKKFKLNTVGIAKFSCFTAVMSLSFYLLYFFILCENKSVAGLTMTYDGNNPVTSHRDVPLSYCNSDCNCDESQWEPVCGNNGITYISPCLAGCKSSSGNKKPIVFYNCSCLEVTGLQNRNYSAHLGECPRDDACTRKFYFFVAIQVLNLFFSALGGTSHVMLIVKIVQPELKSLALGFHSMVIRALGGILAPIYFGALIDTTCIKWSTNNCGTRGSCRTYNSTSFSRVYLGLSSMLRVSSLVLYIILIYAMKKKYQEKDINASENGSVMDEANLESLNKNKHFVPSAGADSETHC
# Tests used:
# [1] = target: T1, Solute carrier organic anion transporter family member 1B3; experiment: (§1) TP_TRANSPORTER: uptake in Xenopus laevis oocytes; type: functional, cell-based, Oocyte; settings: oocyte
# [2] = target: T2, Solute carrier organic anion transporter family member 1B1; experiment: as §1; type: functional, cell-based; settings: oocyte
# [3] = target: T3, Solute carrier organic anion transporter family member 1A2; experiment: as §1; type: functional, cell-based; settings: oocyte
# [4] = target: T4, Solute carrier organic anion transporter family member 2B1; experiment: as §1; type: functional, cell-based; settings: oocyte
# [5] = target: T5, Solute carrier organic anion transporter family member 1B3 (OATP1B3, SLCO1B3); experiment: as §1; type: functional, cell-based, Oocyte; settings: Xenopus laevis oocytes expressing the transporter
# [6] = substrate: O=C1OC(c2ccc(O)c(S(=O)(=O)O)c2)(c2ccc(O)c(S(=O)(=O)O)c2)c2c(Br)c(Br)c(Br)c(Br)c21; experiment: as §1; type: functional, cell-based, Oocyte
Molecule,Activity [1],Activity [3],further results
CC1(C)SSC(C)(C)[C@@H](NC(=O)[C@@H](N)Cc2ccc(O)cc2)C(=O)NCC(=O)N[C@@H](Cc2ccccc2)C(=O)N[C@H]1C(=O)O,substrate [+],–,Activity [2]: substrate [+]
CC(C)C[C@@H]1NC(=O)[C@@H](C(C)C)NC(=O)[C@@H]2CCCN2C(=O)[C@@H](CC(=O)O)NC(=O)[C@@H](Cc2c[nH]c3ccccc23)NC1=O [BQ-123] (cyclo(L[dW][dD]P[dV])),substrate [+],substrate [+],Activity [2]: substrate [+]
CC(C)[C@H](NC(=O)[C@H](CCC(=O)O)NC(=O)[C@H](Cc1ccccc1)NC(=O)[C@@H](C)NC(=O)[C@@H](N)Cc1ccc(O)cc1)C(=O)N[C@H](C(=O)NCC(N)=O)C(C)C [DELTORPHIN II],substrate [+],–,–
CCCCC[C@H](O)/C=C/[C@H]1[C@H](O)CC(=O)[C@@H]1C/C=C\CCCC(=O)O [DINOPROSTONE],–,substrate [+],–
C[C@]12CC[C@@H]3c4ccc(O)cc4CC[C@H]3[C@@H]1CC[C@@H]2O[C@@H]1O[C@H](C(=O)O)[C@@H](O)[C@H](O)[C@H]1O [ESTRADIOL 17B GLUCURONIDE],substrate [+],substrate [+],–
C[C@]12CC[C@@H]3c4ccc(OS(=O)(=O)O)cc4CC[C@H]3[C@@H]1CCC2=O [ESTRONE SULFURIC ACID],substrate [+],–,Activity [4]: substrate [+]
C[C@H](CCC(=O)NCC(=O)O)[C@H]1CC[C@H]2[C@@H]3[C@H](O)C[C@@H]4C[C@H](O)CC[C@]4(C)[C@H]3C[C@H](O)[C@]12C [GLYCOCHOLIC ACID],substrate [+],substrate [+],Activity [2]: substrate [+]
CCCCC/C=C\C\C=C/C=C/C=C/[C@@H](SC[C@@H](NC(=O)CC[C@H](N)C(=O)O)C(=O)NCC(=O)O)[C@@H](O)CCCC(=O)O [LEUKOTRIEN C4],substrate [+],–,–
N[C@@H](Cc1cc(I)c(Oc2cc(I)c(O)c(I)c2)c(I)c1)C(=O)O [LEVOTHYROXINE],substrate [+],–,–
N[C@@H](Cc1cc(I)c(Oc2ccc(O)c(I)c2)c(I)c1)C(=O)O [LIOTHYRONINE],substrate [+],–,–
C[C@@H]1O[C@@H](O[C@H]2C[C@@H](O)[C@]3(CO)[C@H]4[C@H](O)C[C@]5(C)[C@@H](C6=CC(=O)OC6)CC[C@]5(O)[C@@H]4CC[C@]3(O)C2)[C@H](O)[C@H](O)[C@H]1O [OUABAIN],substrate [+],substrate [+],–
C[C@]12CC[C@H](OS(=O)(=O)O)CC1=CC[C@@H]1[C@@H]2CC[C@]2(C)C(=O)CC[C@@H]12 [PRASTERONE SULFURIC ACID],substrate [+],–,Activity [4]: substrate [+]
O=C1OC(c2ccc(O)c(S(=O)(=O)O)c2)(c2ccc(O)c(S(=O)(=O)O)c2)c2c(Br)c(Br)c(Br)c(Br)c21 [SULFOBROMOPHTHALEIN SODIUM],–,–,Km [5]: 0.4 µM
B1,–,–,Km [6]: 0.7 µM
B2,–,–,Km [6]: 0.3 µM

# From ChEMBL document CHEMBL2074173, “Organic anion-transporting polypeptide B (OATP-B) and its functional comparison with three other OATPs of human liver” (Gastroenterology, 2001)
